Data: paper PMC6792352, “Limited Chemical Structural Diversity Found to Modulate Thyroid Hormone Receptor in the Tox21 Chemical Library” (Environmental Health Perspectives, 2019)
Counter-ions that a name gives are not always drawn.

Experiment: in vitro
Conditions: rat, gh3-tre-luc cells, AC50 (uM) modified / 1000

Structure (SMILES)	CC50 at 24 h
CC(CCc1ccc(O)cc1)NCCc1ccc(O)c(O)c1 (centres unmarked) [Dobutamine]	> 50 µM
COC(=O)NS(=O)(=O)c1ccc(N)cc1 [Asulam]	> 90 µM
Cn1c(=O)c2c(ncn2CC2OCCO2)n(C)c1=O [Doxofylline]	> 50 µM
Cc1cccc(C(=O)O)c1 [3-Methylbenzoic acid]	> 90 µM
CCOCCOCC [Ethylene glycol diethyl ether]	> 100 µM
CN(C(=O)CN(CCO)CC(=O)N(C)C(C)(C)Cc1ccccc1)C(C)(C)Cc1ccccc1 [Oxethazaine]	16.2 µM
CCN(CC)c1ccc(C(=O)c2ccccc2C(=O)O)c(O)c1 [2-[4-(Diethylamino)-2-hydroxybenzoyl]benzoic acid]	> 90 µM
COc1ccc(CCNC[C@H](O)c2ccc(O)cc2)cc1OC [Denopamine]	> 50 µM
N#CC(Cl)Cl [Dichloroacetonitrile]	72.9 µM
C[N+](C)(CCCCCC[N+](C)(C)C1c2ccccc2-c2ccccc21)C1c2ccccc2-c2ccccc21 [Hexafluorenium dibromide]	> 50 µM
CCCOCCO [2-Propoxyethanol]	> 90 µM
CCCCCCCN [Heptylamine]	> 90 µM
COC(=O)c1cc(Oc2ccc(Cl)cc2Cl)ccc1[N+](=O)[O-] [Bifenox]	> 90 µM
O=C1CCC(=O)O1 [Succinic anhydride]	> 90 µM
CC(C)CCCC(C)N (centres unmarked) [2-Amino-6-methylheptane]	> 50 µM
C[C@H]1NCc2cc(-c3ccc4c(=O)c(C(=O)O)cn(C5CC5)c4c3OC(F)F)ccc21 [Garenoxacin mesylate hydrate]	> 50 µM
Brc1cc2ccccc2c2ccccc12 [9-Bromophenanthrene]	> 90 µM

Structure (SMILES)	CC50 at 24 h
N=C(N)NN=C1C=CC(=NNC(N)=S)C=C1 [Ambazone]	23 µM
CCCCCCCCCCCCOCCOS(=O)(=O)O [Sodium lauryl polyoxyethylene ether sulfate]	41 µM
C/C=C1\C(=O)C[C@H]2[C@@H]3CCC4=CC(=O)CC[C@]4(C)[C@H]3CC[C@]12C [Guggulsterone Z]	> 50 µM
COc1cc(OC)nc(Oc2cccc(Oc3nc(OC)cc(OC)n3)c2C(=O)O)n1 [Bispyribac-sodium]	> 90 µM
CCCCCCCCSC(=O)Oc1cc(Cl)nnc1-c1ccccc1 [Pyridate]	> 90 µM
Nc1c(Cl)c(F)nc(OCC(=O)O)c1Cl [Fluroxypyr]	> 90 µM
CN[C@@]1(c2ccccc2Cl)CCCCC1=O [(+)-Ketamine]	> 50 µM
CNCC(=O)c1ccc(O)c(O)c1 [Adrenone]	> 50 µM
CC(C)c1cccc(C(C)C)c1 [1,3-Diisopropylbenzene]	> 90 µM
CCc1ccc(CC)cc1 [1,4-Diethylbenzene]	> 90 µM
Nc1nc2[nH]cc(CCc3ccc(C(=O)N[C@@H](CCC(=O)O)C(=O)O)cc3)c2c(=O)[nH]1 [Pemetrexed disodium]	> 50 µM
CCCCCCCCOc1ccc(C(=O)O)cc1 [4-Octyloxybenzoic acid]	> 90 µM
CC(C)(C)OC(=O)c1cccc(N)c1 [tert-Butyl-3-aminobenzoate]	> 90 µM
O=Cc1ccccc1O [Salicylaldehyde]	> 90 µM
O=C(O)c1cc(C(=O)O)c(C(=O)O)cc1C(=O)O [Pyromellitic acid]	> 90 µM
COc1ccc2[nH]c([S+]([O-])Cc3ncc(C)c(OC)c3C)nc2c1 (centres unmarked) [Omeprazole]	> 90 µM
C#C[C@]1(O)CC[C@H]2[C@@H]3CCC4=CC(=O)CC[C@@H]4[C@H]3CC[C@@]21C [Norethindrone]	59.2 µM

Same assay, conditions: rat, gh3-tre-luc cells, AC50 (uM) modified / 1000, Tox21_110001=Tox21_111602; viability, 1 nM T3 present, 24 h

Structure (SMILES)	CC50 at 24 h
CC1CCC(C(C)C)C(OC(=O)c2ccccc2N)C1 (centres unmarked) [Menthyl anthranilate]	42.1 µM

Same assay, conditions: rat, gh3-tre-luc cells, AC50 (uM) modified / 1000, Tox21_110001=Tox21_200561; viability, 1 nM T3 present, 24 h

Structure (SMILES)	CC50 at 24 h
CC1CCC(C(C)C)C(OC(=O)c2ccccc2N)C1 (centres unmarked) [Menthyl anthranilate]	27.5 µM

Same assay, conditions: rat, gh3-tre-luc cells, AC50 (uM) modified / 1000, Tox21_110001=Tox21_200839; viability, 1 nM T3 present, 24 h

Structure (SMILES)	CC50 at 24 h
Cc1ccc2ccccc2c1 [2-Methylnaphthalene]	> 90 µM

Same assay, conditions: rat, gh3-tre-luc cells, AC50 (uM) modified / 1000, Tox21_110001=Tox21_201783; viability, 1 nM T3 present, 24 h

Structure (SMILES)	CC50 at 24 h
C/C=C/c1ccc2c(c1)OCO2 [Isosafrole]	> 90 µM

Same assay, conditions: rat, gh3-tre-luc cells, AC50 (uM) modified / 1000, Tox21_110001=Tox21_201911; viability, 1 nM T3 present, 24 h

Structure (SMILES)	CC50 at 24 h
ClC1=C(Cl)C2(Cl)C3C(Cl)C=CC3C1(Cl)C2(Cl)Cl (centres unmarked) [Heptachlor]	37.8 µM

Same assay, conditions: rat, gh3-tre-luc cells, AC50 (uM) modified / 1000, Tox21_110001=Tox21_202151; viability, 1 nM T3 present, 24 h

Structure (SMILES)	CC50 at 24 h
CCN(N=O)C(N)=O [1-Ethyl-1-nitrosourea]	> 90 µM

Same assay, conditions: rat, gh3-tre-luc cells, AC50 (uM) modified / 1000, Tox21_110001=Tox21_300534; viability, 1 nM T3 present, 24 h

Structure (SMILES)	CC50 at 24 h
ClC1=C(Cl)C2(Cl)C3C(Cl)C=CC3C1(Cl)C2(Cl)Cl (centres unmarked) [Heptachlor]	42.6 µM

Same assay, conditions: rat, gh3-tre-luc cells, AC50 (uM) modified / 1000, Tox21_110001=Tox21_300792; viability, 1 nM T3 present, 24 h

Structure (SMILES)	CC50 at 24 h
COC(=O)Cc1ccccc1 [Methyl phenylacetate]	> 90 µM

Same assay, conditions: rat, gh3-tre-luc cells, AC50 (uM) modified / 1000, Tox21_110001=Tox21_301527; viability, 1 nM T3 present, 24 h

Structure (SMILES)	CC50 at 24 h
C=C[Si]1(C)O[Si](C)(C=C)O[Si](C)(C=C)O[Si](C)(C=C)O1 (centres unmarked) [1,3,5,7-Tetramethyl-1,3,5,7-tetravinylcyclotetrasiloxane]	> 90 µM

Same assay, conditions: rat, gh3-tre-luc cells, AC50 (uM) modified / 1000, Tox21_110001=Tox21_302749; viability, 1 nM T3 present, 24 h

Structure (SMILES)	CC50 at 24 h
CCN(N=O)C(N)=O [1-Ethyl-1-nitrosourea]	> 60 µM
